Literature values in patent US20120201886A1, “Coated Extended Release Pharmaceutical Compositions Containing Paliperidone” (MICRO LABS LIMITED, priority 2010, published 2012).

solubility in 0.1 N hydrochloric acid (0.1 N hydrochloric acid): soluble
solubility in methanol (methanol): soluble
solubility in methylene chloride (methylene chloride): freely soluble
solubility in water (water): practically insoluble
SMILES: Cc1nc2n(c(=O)c1CCN1CCC(c3noc4cc(F)ccc34)CC1)CCCC2O (racemic) [Paliperidone, (RS)-3-[2-[4-(6-fluorobenzo[d]isoxazol-3-yl)-1-piperidyl]ethyl]-7-hydroxy-4-methyl-1,5-diazabicyclo[4.4.0]deca-3,5-dien-2-one]
